Reference: patent EP4516289A1, “ANTIVIRAL NASAL SPRAY COMPRISING FAVIPIRAVIR” (SPH Sine Pharmaceutical Laboratories Co., Ltd, priority 2023, dated 2025)
Values after ≈ are worked out from the molar mass of the structure shown.

Assays:
[1] = cited from earlier work
[2] = Solubility and storage stability of aqueous FPV formulations (RP-HPLC on day 0 and day 7); type: physicochemical; details: for solubility: thermodynamic from solid; for highest starting concentration of dissolved FPV: HPLC day 0, calculated approx. 17 mg/ml
Experimental: In order to determine the maximum solubility of FPV in water various samples of either raw or micronized FPV powder have been prepared. […] In this experimental set-up, the FPV starting concentration was adjusted to a calculated value of 5 mg/ml. After admixture of all ingredients the experimental samples contained 10 %v/v PEG 400, 2 %wt dexpanthenol, and either a citrate or a phosphate buffer, or a combination of both, adjusted to pH 5.5. The selected saponins were tested each in three concentrations, i.e. escin: 0.10, 0.25 and 0.50% w/v, and glycyrrhizin: 1.0, 2.5 and 5.0% w/v. Glycyrrhizin was applied in the form of dipotassium glycyrrhizinate in this and all other examples. For the quantification of FPV contents in the experimental sample formulations, an RP-HPLC method using a Zorbax Eclipse Plus C18 column from Agilent Technologies was applied and adapted for the present purpose. The results of the storage stability test of the various FPV containing samples are depicted in Table 2. Table 2: Storage stability of different aqueous formulations of 5 mg/ml FPV In an attempt to raise the starting concentration of FPV in a pharmaceutically acceptable aqueous solvent the PEG 400 / FPV stock solution was applied in an amount such as to increase the theoretical / calculated FPV concentration from 5 to about 10mg/ml, more precisely to 9.5mg/ml. After admixture of the predetermined portion of PEG 400 solvent comprising FPV to the aqueous buffer solution the resulting samples contained 10.5 %v/v PEG 400, and 2% dexpanthenol in phosphate buffer pH 5.5. The selected saponins were applied in the following concentrations: escin: 0.01 and 0.05 %w/v; glycyrrhizin: 1.0, 2.5 and 5.0 %w/v. The sample formulations were analyzed by HPLC on day 0 and day 7, the results being depicted in Table 3. Table 3: Storage stability of different aqueous formulations of 9.5 mg/ml FPV In a next step it was tried to even further increase the FPV concentration in the aqueous solvent system. The theoretical FPV starting concentration was adjusted to approximately 17 mg/ml, more precisely to 17.2 mg/ml (raw FPV) and 17.1 mg/ml (micronized FPV), using stock solutions comprising 85.45 mg/ml (raw) and 86.07 mg/ml (micronized) FPV in PEG 400. The final experimental samples contained […] and 2% dexpanthenol in phosphate buffer, pH 5.5, along with varying saponin concentrations: escin 0.10, 0.25 and 0.50 %w/v; glycyrrhizin: 1.0, 2.5 and 5.0 %w/v. The factual - as opposed to the calculated, theoretical - FPV concentrations were determined from the sample preparations by HPLC on day 0 and day 7. Table 4: Storage stability of different aqueous formulations of 17 mg/ml FPV In yet another experimental set-up a possible influence of the organic solvent PEG 400 on the solubility and stability of buffered aqueous sample preparations containing approximately 10 mg/ml FPV was investigated. PEG 400 was used at concentrations of 0, 2.5, 5.0, 7.5 and 10.0 %v/v. The samples were prepared in phosphate buffer, pH 5.5 with 2% dexpanthenol and including at least one of the saponins in the following concentrations: escin 0.01 and 0.05 %w/v; glycyrrhizin 1.0, 2.5 and 5.0 %w/v. […] The FPV contents in the sample preparations were analyzed by HPLC on day 0 and day 7, and the results are depicted in Table 5. In this experiment, only micronized FPV powder was used and was directly added to the aqueous formulations in an amount such as to yield a calculated (theoretical) concentration of 10 mg/ml. […]

[3] = Solubility of micronized FPV in different organic solvents (visual inspection); type: physicochemical; details: thermodynamic from solid
Description: In order to check for a possible improvement of FPV solubility in an aqueous solvent, it was decided to follow the protocol of WO2017009480. As a first task it was necessary to find a suitable organic solvent for pre-dissolution of FPV prior to adding the pre-dissolved FPV to the buffered aqueous solvent. The results are depicted in Table 1 Table 1: Solubility of micronized FPV in different organic solvents

- solubility ([2]; 25 °C, pure water, read-out: solubility in an aqueous solution): ~4500 µg/mL
- solubility ([2]; aqueous buffer, stable pH 4 to 6, phosphate or citrate buffer system, read-out: solubility in an aqueous solution): > 10000 µg/mL
- solubility ([2]; aqueous solution without buffer, 25 °C, water, without buffer, regardless of the amount of FPV added, read-out: maximum solubility of FPV in an aqueous solution): < 5000 µg/mL
- highest starting concentration of dissolved FPV ([2]; micronized FPV in phosphate buffer without saponins and without dexpanthenol): 11.7 mg/mL
- highest starting concentration of dissolved FPV ([2]; raw FPV in phosphate buffer pH 5.5 including 5 %w/v glycyrrhizin): 11.5 mg/mL
- solubility ([3]; organic solvent or mixture, solvent Glycerol, read-out: Solubility, Visual Inspection Conc.): < 33 mg/mL
- solubility ([3]; organic solvent or mixture, solvent PEG 400, read-out: Solubility, Visual Inspection Conc.): 90 mg/mL (≈ 573 mM)
- solubility ([3]; organic solvent or mixture, solvent PG, read-out: Solubility, Visual Inspection Conc.): < 10 mg/mL
- solubility ([3]; organic solvent or mixture, solvent PPG 400, read-out: Solubility, Visual Inspection Conc.): 25 mg/mL (≈ 159 mM)
- solubility ([3]; solvent AD (distilled water), read-out: Solubility, Visual Inspection Conc.): 5 mg/mL (≈ 31.8 mM)
Compound: NC(=O)c1nc(F)cnc1O [FPV, 6-fluoro-3-hydroxypyrazine-2-carboxamide]
- solubility in water [1]: slightly soluble
